Common to all, as to format: biochemical
One assay deals with JAK1 (Homo sapiens (Human), UniProt P23458). Description: Enzyme assay (Assay Example^a 1), JAK1. The note with it: ATP 100 μM.
A further assay has as its target JAK2 (Homo sapiens (Human), UniProt O60674). In words: Enzyme assay (Assay Example^a 1), JAK2.
The next assay has as its target Tyk2 (Homo sapiens (Human), UniProt P29597). In words: Enzyme assay (Assay Example^a 1), Tyk2. The note with it: ATP 100 μM.
For the next assay, the target named is JAK3 (Homo sapiens (Human), UniProt P52333). In words: Enzyme assay (Assay Example^a 1), JAK3. The note with it: ATP 100 μM.
Chain of JAK3 (P52333 whole entry): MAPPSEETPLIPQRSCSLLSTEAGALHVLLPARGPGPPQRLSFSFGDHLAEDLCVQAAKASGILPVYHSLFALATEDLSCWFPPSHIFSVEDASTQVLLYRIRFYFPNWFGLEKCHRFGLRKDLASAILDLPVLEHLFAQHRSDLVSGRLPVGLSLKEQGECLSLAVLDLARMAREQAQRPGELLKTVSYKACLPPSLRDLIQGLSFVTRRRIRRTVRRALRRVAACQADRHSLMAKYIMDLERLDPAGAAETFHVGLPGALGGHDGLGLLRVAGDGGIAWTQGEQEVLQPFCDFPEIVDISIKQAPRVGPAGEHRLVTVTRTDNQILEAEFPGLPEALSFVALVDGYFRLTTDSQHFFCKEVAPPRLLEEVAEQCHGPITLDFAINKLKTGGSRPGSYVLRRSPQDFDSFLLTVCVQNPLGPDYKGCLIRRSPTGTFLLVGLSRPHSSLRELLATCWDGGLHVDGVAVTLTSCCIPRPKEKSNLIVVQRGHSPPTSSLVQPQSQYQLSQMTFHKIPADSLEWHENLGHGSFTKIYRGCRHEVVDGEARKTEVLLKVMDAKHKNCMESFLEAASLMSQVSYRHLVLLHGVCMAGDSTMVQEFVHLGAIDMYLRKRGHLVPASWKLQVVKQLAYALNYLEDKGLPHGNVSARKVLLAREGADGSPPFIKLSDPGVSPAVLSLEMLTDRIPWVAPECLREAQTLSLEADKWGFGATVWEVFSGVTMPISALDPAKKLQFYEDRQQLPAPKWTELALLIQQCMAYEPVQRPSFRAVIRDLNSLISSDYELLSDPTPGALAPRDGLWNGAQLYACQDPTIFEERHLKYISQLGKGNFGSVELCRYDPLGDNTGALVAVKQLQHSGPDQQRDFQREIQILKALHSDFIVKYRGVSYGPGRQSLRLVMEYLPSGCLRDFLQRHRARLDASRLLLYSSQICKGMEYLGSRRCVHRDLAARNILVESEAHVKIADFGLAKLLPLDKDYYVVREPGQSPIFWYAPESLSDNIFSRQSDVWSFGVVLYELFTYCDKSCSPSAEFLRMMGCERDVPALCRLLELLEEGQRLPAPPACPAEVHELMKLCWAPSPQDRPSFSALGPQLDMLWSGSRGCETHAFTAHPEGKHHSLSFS

SMILES strings stand for the structures. Where two headings read alike, the source gives them in different places. A value given as a limit tells only on which side of the number the result lay.

Chain of Tyk2 (P29597 whole entry): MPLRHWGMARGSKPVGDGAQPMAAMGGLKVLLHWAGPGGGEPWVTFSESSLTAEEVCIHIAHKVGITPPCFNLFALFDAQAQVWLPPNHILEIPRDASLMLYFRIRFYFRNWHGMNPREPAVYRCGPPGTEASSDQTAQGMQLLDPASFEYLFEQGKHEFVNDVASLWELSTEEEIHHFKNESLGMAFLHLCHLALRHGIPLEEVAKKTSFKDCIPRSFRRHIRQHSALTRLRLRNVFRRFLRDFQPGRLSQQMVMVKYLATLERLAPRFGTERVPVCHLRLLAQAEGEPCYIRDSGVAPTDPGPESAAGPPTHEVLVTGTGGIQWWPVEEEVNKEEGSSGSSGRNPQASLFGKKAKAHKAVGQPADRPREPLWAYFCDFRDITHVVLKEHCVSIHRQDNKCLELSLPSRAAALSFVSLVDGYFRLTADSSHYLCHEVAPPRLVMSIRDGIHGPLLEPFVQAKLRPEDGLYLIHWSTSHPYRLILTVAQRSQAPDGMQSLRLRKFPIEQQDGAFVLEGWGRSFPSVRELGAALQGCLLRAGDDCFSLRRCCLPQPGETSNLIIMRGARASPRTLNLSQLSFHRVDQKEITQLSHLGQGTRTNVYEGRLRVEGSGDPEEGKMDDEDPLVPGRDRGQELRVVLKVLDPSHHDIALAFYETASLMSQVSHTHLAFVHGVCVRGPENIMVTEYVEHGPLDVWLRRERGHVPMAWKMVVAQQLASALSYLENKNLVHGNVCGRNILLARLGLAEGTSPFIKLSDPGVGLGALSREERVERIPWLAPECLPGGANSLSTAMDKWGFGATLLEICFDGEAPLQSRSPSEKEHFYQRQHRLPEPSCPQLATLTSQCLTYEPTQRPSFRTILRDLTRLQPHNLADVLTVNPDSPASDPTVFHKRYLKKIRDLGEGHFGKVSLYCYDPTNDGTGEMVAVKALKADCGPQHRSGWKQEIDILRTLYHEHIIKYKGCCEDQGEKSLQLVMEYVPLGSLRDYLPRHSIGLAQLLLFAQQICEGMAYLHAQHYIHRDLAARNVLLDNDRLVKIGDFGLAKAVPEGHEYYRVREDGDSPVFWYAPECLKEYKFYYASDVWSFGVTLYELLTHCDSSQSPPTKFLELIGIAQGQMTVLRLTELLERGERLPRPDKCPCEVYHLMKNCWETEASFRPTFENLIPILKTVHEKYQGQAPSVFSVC

`Clc1cnccc1CN1CCC(c2nnn3cnc4[nH]ccc4c23)CC1` [compound 163, 1-{1-[(3-chloropyridin-4-yl)methyl]piperidin-4-yl}-7H-pyrrolo[3,2-e][1,2,3]triazolo[1,5-c]pyrimidine]: the IC50 (as a rule, the concentration needed to halve the response being measured) worked out at 0.01 µM against JAK1 (Table^a 154); 0.034 µM at JAK2 (ATP 100 μM, Table^a 154); 0.31 µM against Tyk2 (Table^a 154); 0.41 µM on JAK3 (Table^a 154).
Regarding `O=C([C@H]1CC[C@H](c2nnn3cnc4[nH]ccc4c23)CC1)N1CC[C@H](O)C1` [compound 358, [trans-4-(7H-pyrrolo[3,2-e][1,2,3]triazolo[1,5-c]pyrimidin-1-yl)cyclohexyl][(S)-3-hydroxypyrrolidin-1-yl]methanone], the IC50 is 0.63 µM at JAK1, 0.91 µM on JAK2 (ATP 100 μM), > 1 µM against Tyk2 and > 1 µM against JAK3.
For the molecule `NC(=O)C1CCN(C[C@H]2CC[C@H](c3nnn4cnc5[nH]ccc5c34)CC2)CC1` [compound 261, 1-{[trans-4-(7H-pyrrolo[3,2-e][1,2,3]triazolo[1,5-c]pyrimidin-1-yl)cyclohexyl]methyl}piperidine-4-carboxamide], the IC50 against JAK1 was 0.023 µM; against JAK2 (ATP 100 μM), 0.091 µM; on Tyk2, 0.64 µM; at JAK3 it was > 1 µM.
Consider `O=C1SCCC1NC[C@H]1CC[C@H](c2nnn3cnc4[nH]ccc4c23)CC1` (stereo partly drawn) [compound 253, 3-({[trans-4-(7H-pyrrolo[3,2-e][1,2,3]triazolo[1,5-c]pyrimidin-1-yl)cyclohexyl]methyl}amino)dihydrothiophen-2(3H)-one], for which the half-maximal inhibitory concentration (IC50) was 0.0011 µM at JAK1, 0.0066 µM at JAK2 (ATP 100 μM), 0.044 µM against Tyk2 and 0.14 µM against JAK3.
Consider `c1cc2c(ncn3nnc([C@H]4CC[C@H](CN5CCC5)CC4)c23)[nH]1` [compound 286, 1-[trans-4-(azetidin-1-ylmethyl)cyclohexyl]-7H-pyrrolo[3,2-e][1,2,3]triazolo[1,5-c]pyrimidine], for which the IC50 was determined as 0.0059 µM against JAK1, 0.035 µM at JAK2 (ATP 100 μM), 0.23 µM against Tyk2 and 0.57 µM on JAK3.
In the same order, the values of `N#CCCNC(=O)[C@H]1CC[C@H](c2nnn3cnc4[nH]ccc4c23)CC1` [compound 356, trans-N-(2-cyanoethyl)-4-(7H-pyrrolo[3,2-e][1,2,3]triazolo[1,5-c]pyrimidin-1-yl)cyclohexanecarboxamide] are 0.0036 µM, 0.036 µM, 0.16 µM and > 1 µM.
Taken in the same sequence, the figures for `CCNC[C@H]1CC[C@H](c2nnn3cnc4[nH]ccc4c23)CC1` [compound 330, N-{[trans-4-(7H-pyrrolo[3,2-e][1,2,3]triazolo[1,5-c]pyrimidin-1-yl)cyclohexyl]methyl}ethanamine] were 0.0074 µM, 0.047 µM, 0.14 µM and > 1 µM.
Taken in the same sequence, the figures for `O=C(N[C@@H]1CCN(C[C@H]2CC[C@H](c3nnn4cnc5[nH]ccc5c34)CC2)C1)C(F)(F)F` [compound 320, N-((R)-1-{[trans-4-(7H-pyrrolo[3,2-e][1,2,3]triazolo[1,5-c]pyrimidin-1-yl)cyclohexyl]methyl}pyrrolidin-3-yl)-2,2,2-trifluoroacetamide] were 0.0076 µM, 0.057 µM, 0.86 µM and > 1 µM.
As to `O[C@H]1CCCC[C@H]1CNC[C@H]1CC[C@H](c2nnn3cnc4[nH]ccc4c23)CC1` (relative stereo) [compound 312, cis-2-[({[trans-4-(7H-pyrrolo[3,2-e][1,2,3]triazolo[1,5-c]pyrimidin-1-yl)cyclohexyl]methyl}amino)methyl]cyclohexanol], the IC50 on JAK1 was 0.012 µM; on JAK2 (ATP 100 μM), 0.045 µM; against Tyk2, 0.37 µM; against JAK3 it was > 1 µM.
With `O=C(N[C@H]1CC[C@H](c2nnn3cnc4[nH]ccc4c23)CC1)OCc1ccccc1` [compound 60], the 50% inhibitory concentration (IC50) on JAK1 (Table^a 154) is 0.0051 µM; at JAK2, 0.032 µM; against Tyk2 (Table^a 154) it was 4.2 µM; at JAK3 (Table^a 154), > 1 µM.
Regarding `Fc1ccc(CN[C@H]2CC[C@@H](c3nnn4cnc5[nH]ccc5c34)CC2)cc1` [195a, cis-N-(4-fluorobenzyl)-4-(7H-pyrrolo[3,2-e][1,2,3]triazolo[1,5-c]pyrimidin-1-yl)cyclohexanamine], the IC50 is 0.03 µM against JAK1 (Table^a 154); 0.55 µM at JAK2 (ATP 100 μM, Table^a 154); 0.31 µM against Tyk2 (Table^a 154); > 1 µM at JAK3 (Table^a 154).
In the same order, the values of `Fc1ccc(CCN[C@H]2CC[C@H](c3nnn4cnc5[nH]ccc5c34)CC2)cc1` [201b, trans-N-(4-fluorophenethyl)-4-(7H-pyrrolo[3,2-e][1,2,3]triazolo[1,5-c]pyrimidin-1-yl)cyclohexanamine] are 0.0039 µM, 0.066 µM, 0.1 µM and 0.41 µM.
As to `OC(CN[C@H]1CC[C@H](c2nnn3cnc4[nH]ccc4c23)CC1)(c1ccccc1)C(F)(F)F` (mixture of isomers) [196b, 3-{[trans-4-(7H-pyrrolo[3,2-e][1,2,3]triazolo[1,5-c]pyrimidin-1-yl)cyclohexyl]amino}-1,1,1-trifluoro-2-phenylpropan-2-ol], the IC50 was determined as 0.0032 µM at JAK1 (Table^a 154) and 0.036 µM against JAK2 (ATP 100 μM, Table^a 154).
As for `O=S(=O)(C[C@H]1CC[C@H](c2nnn3cnc4[nH]ccc4c23)CC1)c1ccccc1` [compound 364, 1-{trans-4-[(phenylsulfonyl)methyl]cyclohexyl}-7H-pyrrolo[3,2-e][1,2,3]triazolo[1,5-c]pyrimidine], the IC50 against JAK1 turned out to be 0.0057 µM; at JAK2 (ATP 100 μM), 0.011 µM.
Consider `FC(F)(F)c1cc(CN2CCC(c3nnn4cnc5[nH]ccc5c34)CC2)ccc1Cl` [compound 155], for which the IC50 on JAK1 (Table^a 154) came out at 0.011 µM; against JAK2 (ATP 100 μM, Table^a 154), 0.032 µM.
As for `N#CC(C#N)C[C@H]1CC[C@H](c2nnn3cnc4[nH]ccc4c23)CC1` [compound 432, 2-{[trans-4-(7H-Pyrrolo[3,2-e][1,2,3]triazolo[1,5-c]pyrimidin-1-yl)cyclohexyl]methyl}malononitrile], the IC50 against JAK2 (ATP 100 μM) was determined as 0.0088 µM; against Tyk2, 0.067 µM; on JAK3, 0.17 µM.
Take `N#Cc1ccc(NC[C@H]2CC[C@H](c3nnn4cnc5[nH]ccc5c34)CC2)cc1Cl` [compound 247, 4-({[trans-4-(7H-pyrrolo[3,2-e][1,2,3]triazolo[1,5-c]pyrimidin-1-yl)cyclohexyl]methyl}amino)-2-chlorobenzonitrile]: the IC50 on JAK1 was 0.013 µM; on JAK2 (ATP 100 μM), 0.09 µM; at Tyk2 it was > 1 µM.
Turning to `OC(CN[C@H]1CC[C@H](c2nnn3cnc4[nH]ccc4c23)CC1)(c1ccc(Cl)cc1)C(F)(F)F` (mixture of isomers) [199b, 3-((trans-4-(7H-pyrrolo[3,2-e][1,2,3]triazolo[1,5-c]pyrimidin-1-yl)cyclohexyl)amino)-2-(4-chlorophenyl)-1,1,1-trifluoropropan-2-ol], the IC50 is 0.0035 µM at JAK1 (Table^a 154); 0.035 µM against JAK2 (ATP 100 μM, Table^a 154); 0.44 µM on Tyk2 (Table^a 154).
Consider `N#Cc1ccc(NC[C@H]2CC[C@H](c3nnn4cnc5[nH]ccc5c34)CC2)cc1C(F)(F)F` [compound 105], for which the IC50 against JAK2 (ATP 100 μM, Table^a 154) was 0.19 µM; against Tyk2 (Table^a 154), 0.37 µM; at JAK3 (Table^a 154), > 1 µM.
As to `c1cc2c(ncn3nnc(C4CCCCCC4)c23)[nH]1` [compound 66], the IC50 on JAK1 (Table^a 154) was 0.0033 µM; against JAK2 (ATP 100 μM, Table^a 154) it was 0.013 µM; at Tyk2 (Table^a 154), 0.027 µM.
Consider `OC(CN[C@H]1CC[C@@H](c2nnn3cnc4[nH]ccc4c23)CC1)(c1ccccc1)C(F)(F)F` (mixture of isomers) [196a, 3-{[cis-4-(7H-pyrrolo[3,2-e][1,2,3]triazolo[1,5-c]pyrimidin-1-yl)cyclohexyl]amino}-1,1,1-trifluoro-2-phenylpropan-2-ol], for which the IC50 against JAK1 (Table^a 154) amounted to 0.06 µM; on JAK2 (ATP 100 μM, Table^a 154) it was 0.75 µM.
`Fc1ccc(C2(NC[C@H]3CC[C@H](c4nnn5cnc6[nH]ccc6c45)CC3)CC2)cc1` [compound 323, N-{[trans-4-(7H-pyrrolo[3,2-e][1,2,3]triazolo[1,5-c]pyrimidin-1-yl)cyclohexyl]methyl}-1-(4-fluorophenyl)cyclopropanamine]: the IC50 turned out to be 0.034 µM at JAK2 (ATP 100 μM), 0.78 µM against Tyk2 and 0.83 µM against JAK3.
With `O=C(OCc1ccccc1)N1CCCC(c2nnn3cnc4[nH]ccc4c23)C1` (racemic) [compound 14], the IC50 is 0.021 µM at JAK1 (Table^a 154); 0.11 µM at JAK2 (ATP 100 μM, Table^a 154); 2.2 µM at Tyk2 (Table^a 154).
In the same order, the values of `OC(CN[C@H]1CC[C@H](c2nnn3cnc4[nH]ccc4c23)CC1)(c1ccc(F)cc1)C(F)(F)F` (mixture of isomers) [200b, 3-{[trans-4-(7H-pyrrolo[3,2-e][1,2,3]triazolo[1,5-c]pyrimidin-1-yl)cyclohexyl]amino}-1,1,1-trifluoro-2-(4-fluorophenyl)propan-2-ol] are 0.0025 µM, 0.032 µM and 0.24 µM.
Take `FC1(F)CCC(c2nnn3cnc4[nH]ccc4c23)CC1` [compound 64]: the IC50 turned out to be 0.033 µM at JAK1 (Table^a 154); 0.12 µM against JAK2 (ATP 100 μM, Table^a 154); 0.31 µM against Tyk2 (Table^a 154).
Taken in the same sequence, the figures for `OC(CNC[C@H]1CC[C@H](c2nnn3cnc4[nH]ccc4c23)CC1)(c1ccccc1)C(F)(F)F` (mixture of isomers) [compound 172, 3-({[trans-4-(7H-pyrrolo[3,2-e][1,2,3]triazolo[1,5-c]pyrimidin-1-yl)cyclohexyl]methyl}amino)-1,1,1-trifluoro-2-phenylpropan-2-ol] were 0.013 µM, 0.093 µM and 0.63 µM.
With `Cc1cc(OC(F)(F)F)ccc1NC[C@H]1CC[C@H](c2nnn3cnc4[nH]ccc4c23)CC1` [compound 104], the IC50 was > 1 µM against JAK2 (ATP 100 μM, Table^a 154); > 1 µM against Tyk2 (Table^a 154); > 1 µM against JAK3 (Table^a 154).
Regarding `FC(F)(F)Oc1ccc(CNC[C@H]2CC[C@H](c3nnn4cnc5[nH]ccc5c34)CC2)cc1` [compound 110], the half-maximal inhibitory concentration (IC50) on JAK1 (Table^a 154) stood at 0.0056 µM; against JAK2 (ATP 100 μM, Table^a 154), 0.091 µM.
With `c1cc2c(ncn3cnc(C4CCCCC4)c23)[nH]1` [compound 2], the IC50 on JAK1 came out at 0.014 µM; at JAK2 (ATP 100 μM), 0.017 µM.
